This note sets out measurements from US20260345517A1, “DOSAGE REGIMENS FOR TREATING STARGARDT DISEASE” (Alkeus Pharmaceuticals, Inc., priority 2024, published 2026).

Series [1] is described as follows: Open-label multiple dose pharmacokinetic study in healthy volunteers (percentage of deuterated vitamin A in plasma, LC/MS). The format is in vivo, human. The following applies: fasting. As for the experimental part: Study Design: This was an open-label, non-randomized, multiple dose study in healthy volunteers aged 21 to 70 years of age (inclusion criteria). Subjects who met all entrance criteria at screening were invited to receive the study medication. There were six treatment arms: 2 mg/day, 3.5 mg/day, 5 mg/day, 7 mg/day, 10 mg/day and 14 mg/day gildeuretinol acetate. For the four lower dose groups, the dose regimen was one capsule per day, orally, to be taken at home, preferably in the evening unless a different time was preferred by the subject. For the two highest doses, the dose regimen was two capsules per day, one in the morning and one in the evening, although subjects with a preference to take both capsules at once were offered to do so. After taking the 1st dose at the study site, subjects were invited to return two and four weeks after starting the treatment.
The clinical staff made periodic calls to monitor adverse events and ensure subject compliance. In addition, a text message was sent daily to remind subjects to take their medication. Subjects were instructed to avoid foods that contain large amounts of vitamin A (such as liver-based products), including supplements containing vitamin A, and to report their vitamin A intake by answering a daily text message diary. Fruits and vegetables were permitted without restriction.
Deuterated retinol (gildeuretinol) (“D3”) and non-deuterated retinol (“Do”) and other vitamin A metabolites were measured to calculate the percentage of deuterated vitamin A in plasma. For all treatment groups, plasma samples were collected at baseline, 14±1 days (“2 weeks”) and 28±1 days (“4 weeks”) after initiation of treatment. Blood samples were usually collected following at least 10 hours of fasting (including last gildeuretinol acetate intake), preferably in the morning. For the 7 mg/day and the 14 mg/day groups only, after the first and last dose, blood samples were collected every 4 hours for 24 hours. A liquid chromatography/mass spectrometry assay was used to measure the metabolite levels.
Table 2 provides % D3 Retinol (gildeuretinol, i.e. the percentage of deuterated retinol (gildeuretinol) over total retinol (as deuterated+non-deuterated) in plasma measured 12-24 hours following gildeuretinol acetate intake.
Pharmacokinetic Results (integrated levels over 24 hours post dosing): total vitamin A in plasma, both deuterated (gildeuretinol) and non-deuterated (retinol), was measured every 4 hours following administration of 7 mg or 14 mg at the first dose, and following administration of the 28th dose (4 weeks of daily treatment). The area under the curve (AUC) was calculated and the % deuterated % D3 of total vitamin A (as retinol and gildeuretinol) was computed as an average over 24 hours.

The nature of series [2]: TEASE-3: plasma gildeuretinol (replacement of plasma vitamin A). The format is in vivo, human. The following applies: 14 mg daily, after the first two months, all three participants. As for the experimental part: The tolerability and effects of gildeuretinol acetate in Stargardt Disease (Clinical trial group 3 also known as TEASE-3) study was an open-label, multicenter, case control study designed to evaluate the efficacy and safety of gildeuretinol acetate on the progression of Stargardt disease in asymptomatic individuals. The trial was conducted at multiple sites in the United States.
To assess the safety and efficacy of gildeuretinol acetate in preventing vision loss in asymptomatic individuals, gildeuretinol acetate 14 mg capsules was administered to individuals showing early signs of retinal damage while maintaining approximately 20/20 vision and no subjective loss of vision. […] Based on the above family history and clinical observations, the individuals were likely to develop retinal lesions, loss of photoreceptors, drops in retinal sensitivity, loss of visual acuity, indicating the onset of symptoms, i.e. a progression to the symptomatic phase, including vision loss within two years, mirroring the progression observed in their older siblings.
Patients received gildeuretinol acetate 14 mg capsules, to be taken orally once daily. Trial visits occurred every 6 months approximately following screening and treatment start visits.

Structures are written as SMILES.

With `CC1=C(/C=C/C(C)=C/C=C/C(C)=C/CO)C(C)(C)CCC1` [gildeuretinol, C20D3-retinol], the “% gildeuretinol over retinol + gildeuretinol in plasma” value (“% gildeuretinol” below) in series [1] (2 mg/day, after 2 weeks of treatment) is 27%; in series [1] (2 mg/day, after 4 weeks of treatment), 31%; in series [1] (3.5 mg/day, after 2 weeks of treatment), 39%; in series [1] (3.5 mg/day, after 4 weeks of treatment) it was 46%; in series [1] (5 mg/day, after 2 weeks of treatment) it was 53%; in series [1] (5 mg/day, after 4 weeks of treatment), 51%. Also, the “% gildeuretinol” value in series [1] (7 mg/day, 24 hours post 1st dose) came to 27%; in series [1] (7 mg/day, after 2 weeks of treatment) it was 55%; in series [1] (7 mg/day, after 4 weeks of treatment), 63%; in series [1] (10 mg/day, after 2 weeks of treatment), 66%; in series [1] (10 mg/day, after 4 weeks of treatment) it was 72%; in series [1] (14 mg/day, 24 hours post 1st dose) it was 41%. Also, the “% gildeuretinol” value was 64% in series [1] (14 mg/day, after 2 weeks of treatment) and 79% in series [1] (14 mg/day, after 4 weeks of treatment). Also, the “replacement of plasma vitamin A (retinol + gildeuretinol) with gildeuretinol” value in series [2] was 80%.
